Test results as given in patent US9593149B2, “Amylin and calcitonin receptor agonist” (Novo Nordisk A/S, priority 2014, dated 2017).
pEC50, pIC50: −log10 of the molar value. Numbered stars: 1 amine (or outer) side, 2 acyl side, 3 side chain; on linkers, the order of the positions; unused ones are H or OH. Side chains are listed from the residue outwards. Peptide text beside a SMILES is read from it. * marks the point of attachment. C20 diacid = O=C(O)CCCCCCCCCCCCCCCCCCC(=O)*; C18 diacid = O=C(O)CCCCCCCCCCCCCCCCC(=O)*; γGlu = O=C(O)[C@H](CCC(=O)[*:2])N[*:1]

Legend:
[1] = molecular target: T1, human calcitonin (a) receptor, BHK570 cells (Homo sapiens, UniProt P30988); assay: Assay (II)a functional CRE-luciferase assay with albumin, human calcitonin receptor; type: cell-based; conditions: Tested with HSA; read-out: hCTR funct. EC50
T1 construct: host or cells: BHK570
T1 sequence (P30988 25-474): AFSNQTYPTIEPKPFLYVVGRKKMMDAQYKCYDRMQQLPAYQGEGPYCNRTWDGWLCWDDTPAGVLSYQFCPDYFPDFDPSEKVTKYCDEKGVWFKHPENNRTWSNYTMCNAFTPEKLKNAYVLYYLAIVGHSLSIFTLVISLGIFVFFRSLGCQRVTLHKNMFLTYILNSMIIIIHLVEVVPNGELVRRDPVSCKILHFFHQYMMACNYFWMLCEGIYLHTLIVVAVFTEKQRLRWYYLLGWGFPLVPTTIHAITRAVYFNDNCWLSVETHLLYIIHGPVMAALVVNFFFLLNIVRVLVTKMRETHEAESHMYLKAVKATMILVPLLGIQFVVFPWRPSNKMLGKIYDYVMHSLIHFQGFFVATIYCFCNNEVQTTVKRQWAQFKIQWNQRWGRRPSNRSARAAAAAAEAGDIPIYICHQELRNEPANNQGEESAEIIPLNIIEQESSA
In short: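 BHK570 cells stably carry a CRE-luciferase reporter and the calcitonin receptor; co-transfected RAMP-3 gives the amylin 3(a) receptor line. Cells were treated for 3 h at 37 °C in DMEM with 10% FBS and 10 mM Hepes, pH 7.4. cAMP-driven luciferase was read by LucLite luminescence after 30 min at RT.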

[2] = molecular target: T2, rat amylin receptor (rat calcitonin receptor + rat RAMP 3) (Rattus norvegicus, UniProt P32214+Q9JJ73); assay: Assay (VI) binding to the rat amylin receptor (membrane); conditions: membranes; read-out: rAmylin-R binding IC50
T2 construct: expressed in transfected cells; host or cells: BHK tk'ts 13 (transient, FuGENE 6)
T2 sequence (P32214 25-479 isoform P32214-2 limits assumed): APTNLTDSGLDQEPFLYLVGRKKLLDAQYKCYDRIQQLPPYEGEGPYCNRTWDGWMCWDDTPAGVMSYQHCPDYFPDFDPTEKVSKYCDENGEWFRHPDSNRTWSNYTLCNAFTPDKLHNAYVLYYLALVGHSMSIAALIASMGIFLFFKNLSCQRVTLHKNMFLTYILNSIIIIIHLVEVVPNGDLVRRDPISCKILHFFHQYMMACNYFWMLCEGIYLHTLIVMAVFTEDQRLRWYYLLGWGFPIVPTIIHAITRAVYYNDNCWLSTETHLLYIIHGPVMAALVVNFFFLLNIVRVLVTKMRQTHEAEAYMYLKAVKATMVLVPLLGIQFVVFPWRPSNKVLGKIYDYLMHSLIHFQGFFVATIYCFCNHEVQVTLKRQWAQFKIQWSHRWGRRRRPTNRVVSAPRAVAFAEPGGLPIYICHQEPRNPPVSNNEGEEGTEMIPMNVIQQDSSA
T2 sequence (Q9JJ73 23-147 partner): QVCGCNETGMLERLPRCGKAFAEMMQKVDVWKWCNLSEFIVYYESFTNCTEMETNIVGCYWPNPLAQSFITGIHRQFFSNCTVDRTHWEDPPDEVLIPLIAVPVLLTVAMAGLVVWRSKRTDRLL
Protocol: The assay was performed as described above (Assay (V)—Determination of binding to the human amylin receptor) with the exception that we used membranes prepared from BHK tk'ts 13 cells that were transiently transfected with the rat calcitonin receptor rat RAMP 3 at an equimolar ratio […]. The BHK tk'ts 13 cells were transiently transfected with rat calcitonin receptor using FuGENE® 6 (Roche), according to the manufacturer's recommendations. Cells were grown in DMEM with 10% FBS and 1% Pen/Strep. Approximately 48 hours after transfection, the cells were harvested and membranes were prepared.

rat calcitonin receptor = molecular target: T3, rat calcitonin receptor (Rattus norvegicus, UniProt P32214); assay: Assay (VIII) binding to the rat calcitonin receptor; conditions: membranes; read-out: rCT-R binding IC50
T3 construct: expressed in transfected cells; host or cells: BHK tk'ts 13 (transient, FuGENE 6)
T3 sequence (P32214 25-479 isoform P32214-2 limits assumed): T2 sequence (P32214 25-479 isoform P32214-2 limits assumed)
In short: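 Affinity given as IC50 from a one-site competition fit of bound radioactivity, counted by scintillation after cold HBSS washes and NaOH/SDS lysis. Membranes came from BHK tk'ts 13 cells transiently expressing the rat receptor; other conditions followed the human calcitonin receptor protocol.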

Compound | pEC50 [1] | pIC50 [2] | pIC50 (rat calcitonin receptor)
CC(C)C[C@H](NC(=O)[C@H](C)NC(=O)[C@H](C)NC(=O)[C@@H](NC(=O)[C@H](CO)NC(=O)[C@H](CC(C)C)NC(=O)[C@H](CCC(=O)O)NC(=O)[C@H](CO)NC(=O)[C@H](C)NC(=O)[C@H](C)NC(=O)CC[C@H](NC(=O)CCCCCCCCCCCCCCCCCCC(=O)O)C(=O)O)[C@@H](C)O)C(=O)NCC(=O)N[C@@H](CCCNC(=N)N)C(=O)N[C@@H](CC(C)C)C(=O)N[C@@H](CO)C(=O)N[C@@H](C)C(=O)N[C@@H](CCC(=O)O)C(=O)N[C@@H](CC(C)C)C(=O)N[C@@H](Cc1c[nH]cn1)C(=O)N[C@@H](CCC(=O)O)C(=O)N[C@@H](CC(C)C)C(=O)N[C@@H](C)C(=O)N[C@H](C(=O)N[C@@H](Cc1ccc(O)cc1)C(=O)N1CCC[C@H]1C(=O)N[C@@H](CCCNC(=N)N)C(=O)N[C@H](C(=O)N[C@@H](CCC(=O)O)C(=O)N[C@H](C(=O)NCC(=O)N[C@@H](CO)C(=O)NCC(=O)N[C@@H](CO)C(=O)N1CCC[C@H]1C(N)=O)[C@@H](C)O)[C@@H](C)O)[C@@H](C)O [compound 57, [N-terminal(C20 diacid-gGlu), 1A, 23Y, 30S, 31G]mimylin] ({C20 diacid-γGlu}-AASELSTAALGRLSAELHELATYPRTETGSGSP-NH2) | 10.29 | 10.60 | 10.36
CC(C)C[C@H](NC(=O)[C@H](CCC(=O)O)NC(=O)[C@H](C)NC(=O)[C@@H](NC(=O)[C@H](CC(C)C)NC(=O)[C@H](CCCNC(=N)N)NC(=O)CNC(=O)[C@H](CC(C)C)NC(=O)[C@@H](NC(=O)[C@H](C)NC(=O)[C@@H](NC(=O)[C@@H](NC(=O)[C@H](CC(C)C)NC(=O)[C@H](CCC(=O)O)NC(=O)[C@H](CO)NC(=O)[C@H](C)NC(=O)CC[C@H](NC(=O)CCCCCCCCCCCCCCCCC(=O)O)C(=O)O)[C@@H](C)O)[C@@H](C)O)C(C)C)[C@@H](C)O)C(=O)N[C@@H](Cc1c[nH]cn1)C(=O)N[C@@H](CCC(=O)O)C(=O)N[C@@H](CC(C)C)C(=O)N[C@@H](CCC(=O)O)C(=O)N[C@H](C(=O)N[C@@H](CC(C)C)C(=O)N1CCC[C@H]1C(=O)N[C@@H](CCCNC(=N)N)C(=O)N[C@H](C(=O)N[C@@H](CCC(=O)O)C(=O)N[C@H](C(=O)NCC(=O)N[C@H](C(=O)NCC(=O)N[C@H](C(=O)N1CCC[C@H]1C(N)=O)[C@@H](C)O)[C@@H](C)O)[C@@H](C)O)[C@@H](C)O)[C@@H](C)O [compound 105, [N-terminal(C18 diacid-gGlu), des1, 6T, 9V, 14T, 21E, 30T, 31G, 32T]mimylin] ({C18 diacid-γGlu}-ASELTTAVLGRLTAELHELETLPRTETGTGTP-NH2) | 10.66 | 9.79 | 10.14
CC(C)C[C@H](NC(=O)[C@H](CCCNC(=N)N)NC(=O)CNC(=O)[C@H](CC(C)C)NC(=O)[C@@H](NC(=O)[C@H](C)NC(=O)[C@@H](NC(=O)[C@H](CO)NC(=O)[C@H](CC(C)C)NC(=O)[C@H](CCC(=O)O)NC(=O)[C@H](CO)NC(=O)[C@H](C)NC(=O)CC[C@H](NC(=O)CCCCCCCCCCCCCCCCCCC(=O)O)C(=O)O)[C@@H](C)O)C(C)C)C(=O)N[C@@H](CO)C(=O)N[C@@H](CCC(N)=O)C(=O)N[C@@H](CCC(=O)O)C(=O)N[C@@H](CC(C)C)C(=O)N[C@@H](Cc1c[nH]cn1)C(=O)N[C@@H](CCC(=O)O)C(=O)N[C@@H](CC(C)C)C(=O)N[C@@H](CCC(N)=O)C(=O)N[C@H](C(=O)N[C@@H](Cc1ccc(O)cc1)C(=O)N1CCC[C@H]1C(=O)N[C@@H](CCCNC(=N)N)C(=O)N[C@H](C(=O)N[C@@H](CCC(=O)O)C(=O)N[C@H](C(=O)NCC(=O)N[C@@H](CO)C(=O)NCC(=O)N[C@H](C(=O)N[C@@H](Cc1ccc(O)cc1)C(N)=O)[C@@H](C)O)[C@@H](C)O)[C@@H](C)O)[C@@H](C)O [compound 114, [N-terminal(C20 diacid-gGlu), des1, 9V, 15Q, 21Q, 23Y, 30S, 31G, 32T, 33Y]mimylin] | 10.01 | 9.84 | 10.68
CC(=O)N[C@@H](C)C(=O)N[C@@H](CO)C(=O)N[C@@H](CCCCNC(=O)CC[C@H](NC(=O)CCCCCCCCCCCCCCCCCCC(=O)O)C(=O)O)C(=O)N[C@@H](CC(C)C)C(=O)N[C@@H](CO)C(=O)N[C@H](C(=O)N[C@@H](C)C(=O)N[C@@H](C)C(=O)N[C@@H](CC(C)C)C(=O)NCC(=O)N[C@@H](CCCNC(=N)N)C(=O)N[C@@H](CC(C)C)C(=O)N[C@@H](CO)C(=O)N[C@@H](C)C(=O)N[C@@H](CCC(=O)O)C(=O)N[C@@H](CC(C)C)C(=O)N[C@@H](Cc1c[nH]cn1)C(=O)N[C@@H](CCC(=O)O)C(=O)N[C@@H](CC(C)C)C(=O)N[C@@H](C)C(=O)N[C@H](C(=O)N[C@@H](CC(C)C)C(=O)N1CCC[C@H]1C(=O)N[C@@H](CCCNC(=N)N)C(=O)N[C@H](C(=O)N[C@@H](CCC(=O)O)C(=O)N[C@H](C(=O)NCC(=O)N[C@@H](CO)C(=O)NCC(=O)N[C@@H](CO)C(=O)N1CCC[C@H]1C(N)=O)[C@@H](C)O)[C@@H](C)O)[C@@H](C)O)[C@@H](C)O [compound 68, [N-terminal(acetyl), des1, 4K(C20 diacid-gGlu), 30S, 31G]mimylin] (Ac-ASK([γGlu-C20 diacid])LSTAALGRLSAELHELATLPRTETGSGSP-NH2) | 10.43 | 10.34 | 11.00
